Reference: patent publication US20240317866A1, “Use of Anti-EGFR/Anti-Met Antibody to Treat Gastric or Esophageal Cancer” (Janssen Biotech, Inc., priority 2022, published 2024)

System: gastric cancer (GC, including GEJ cancer) expressing EGFR and/or cMet
Experiment: Phase 2a study of amivantamab monotherapy, gastric cancer cohort: response by RECIST Version 1.1, investigator judgement
Format: in vivo, human
Excerpt: Approximately 30 participants with any expression level of EGFR, cMet, or both proteins are enrolled in each of the Phase 2a cohort. However, based on the priorexperiences investigating anti-EGFR andanti-cMet antibodies in gastroesophageal cancers, at least 20 participants expressing IHC 2+ or higher (defined as participants expressing EGFR IHC 2+ or above and/or cMet IHC 2+ or above) are enrolled. Additional enrollment in Phase 2a cohorts may be allowed to achieve this minimal enrollment.
This is an open-label, multicenter, multi-arm Phase 2 interventional study in participants with previously treated advanced or unresectable GC or EC who are 20 years or older (or the legal age of consent in the jurisdiction in which the study is taking place). Japanese participants with gastric/GEJ or EC who express varying degrees of EGFR, cMet, or both as determined by IHC locally or centrally are enrolled in the GC cohort or EC cohort.
The baseline disease assessments are performed as close as possible to the start of treatment, but no more than 28 days prior to the first dose. Subsequent assessments are performed at 6 weeks (+1 week) after initiation of study treatment administration, then every 6 weeks (±1 week) for the first 12 months and then every 12 weeks (±1 week) until objective radiographic disease progression. Timing for each disease assessment is relative to the first dose of study treatment administration, regardless of dose modifications, and continues until disease progression. Any other site at which new disease is suspected is also imaged.
For purposes of analysis, the following populations are defined: • (1) All Treated population: All participants who take at least 1 dose of study treatment; • (2) Response evaluable population: All participants who satisfy the following criteria: • Receive at least 1 dose of study treatment; • At least 2 post-baseline efficacy disease assessments, or discontinued treatment for any reason, or have disease progression/death prior to the second post-baseline disease assessment; • (3) Safety population: All participants who take at least 1 dose of study treatment; • (4) Pharmacokinetics population: All participants who receive at least 1 dose of study treatment and have at least 1 evaluable post-baseline measurement; • (5) Immunogenicity population: All participants who receive at least 1 dose of study treatment and have at least 1 evaluable post-baseline measurement.
The primary efficacy measure is ORR. Objective response rate is defined as the proportion of participants who achieve either CR or PR, determined by investigator assessment using RECIST Version 1.1. Confirmation of investigator-assessed ORR may be performed through IRC in the Phase 2b.
Disease Control Rate: Disease control rate is defined as the percentage of participants achieving complete or partial response or stable disease for at least 6 weeks as defined by RECIST Version1.1. The DCR and its 95% CI with Clopper-Pearson method are also calculated.
Next, response to treatment was evaluated. The “All Treated” patient population were patients who received at least 1 dose of study treatment.

[1] = all treated population, IHC 1+, N=5, 1,050/1,400 mg IV
[2] = all treated population, IHC 1+, N=5, 1,050/1,400 mg IV, number of participants
[3] = all treated population, IHC 2+, N=11, 1,050/1,400 mg IV
[4] = all treated population, IHC 2+, N=11, 1,050/1,400 mg IV, number of participants
[5] = all treated population, IHC 3+, N=9, 1,050/1,400 mg IV
[6] = all treated population, IHC 3+, N=9, 1,050/1,400 mg IV, number of participants
[7] = all treated population, IHC NA, N=4, 1,050/1,400 mg IV
[8] = all treated population, IHC NA, N=4, 1,050/1,400 mg IV, number of participants
[9] = all treated population, Total, N=29, 1,050/1,400 mg IV
[10] = all treated population, Total, N=29, 1,050/1,400 mg IV, number of participants
[11] = response evaluable population, IHC 1+, N=4, 1,050/1,400 mg IV
[12] = response evaluable population, IHC 1+, N=4, 1,050/1,400 mg IV, number of participants
[13] = response evaluable population, IHC 2+, N=11, 1,050/1,400 mg IV
[14] = response evaluable population, IHC 2+, N=11, 1,050/1,400 mg IV, number of participants
[15] = response evaluable population, IHC 3+, N=9, 1,050/1,400 mg IV
[16] = response evaluable population, IHC 3+, N=9, 1,050/1,400 mg IV, number of participants
[17] = response evaluable population, Total, N=24, 1,050/1,400 mg IV
[18] = response evaluable population, Total, N=24, 1,050/1,400 mg IV, number of participants

amivantamab
7: Disease control rate (CR + PR + SD) [10]
(4.2%): Objective response rate (CR + PR) [17] | Partial response (PR) [17]
(81.8%): Progressive Disease (PD) [3] | Progressive Disease (PD) [13]
(66.7%): Progressive Disease (PD) [17]
(25.0%): Disease control rate (CR + PR + SD) [7] | Disease control rate (CR + PR + SD) [11] | Not Evaluable (NE) [11]
(20.0%): Disease control rate (CR + PR + SD) [1]
2: Not Evaluable (NE) [2] | Progressive Disease (PD) [2] | Progressive Disease (PD) [12] | Not Evaluable (NE) [18]
(75.0%): Progressive Disease (PD) [7]
(8.3%): Not Evaluable (NE) [17]
(9.1%): Disease control rate (CR + PR + SD) [3] | Not Evaluable (NE) [3] | Disease control rate (CR + PR + SD) [13] | Not Evaluable (NE) [13]
(11.1%): Objective response rate (CR + PR) [5] | Partial response (PR) [5] | Objective response rate (CR + PR) [15] | Partial response (PR) [15]
(44.4%): Disease control rate (CR + PR + SD) [5] | Disease control rate (CR + PR + SD) [15]
16: Progressive Disease (PD) [18]
(65.5%): Progressive Disease (PD) [9]
9: Progressive Disease (PD) [4] | Progressive Disease (PD) [14]
(50.0%): Progressive Disease (PD) [11]
(10.3%): Not Evaluable (NE) [9]
19: Progressive Disease (PD) [10]
4: Disease control rate (CR + PR + SD) [6] | Disease control rate (CR + PR + SD) [16]
(40.0%): Not Evaluable (NE) [1] | Progressive Disease (PD) [1]
(3.4%): Objective response rate (CR + PR) [9] | Partial response (PR) [9]
3: Progressive Disease (PD) [8] | Not Evaluable (NE) [10]
(24.1%): Disease control rate (CR + PR + SD) [9]
1: Disease control rate (CR + PR + SD) [2] | Disease control rate (CR + PR + SD) [4] | Not Evaluable (NE) [4] | Objective response rate (CR + PR) [6] | Partial response (PR) [6] | Disease control rate (CR + PR + SD) [8] | Objective response rate (CR + PR) [10] | Partial response (PR) [10] | Disease control rate (CR + PR + SD) [12] | Not Evaluable (NE) [12] | Disease control rate (CR + PR + SD) [14] | Not Evaluable (NE) [14] | Objective response rate (CR + PR) [16] | Partial response (PR) [16] | Objective response rate (CR + PR) [18] | Partial response (PR) [18]
6: Disease control rate (CR + PR + SD) [18]
5: Progressive Disease (PD) [6] | Progressive Disease (PD) [16]
0: Complete response (CR) [2] | Objective response rate (CR + PR) [2] | Partial response (PR) [2] | Complete response (CR) [4] | Objective response rate (CR + PR) [4] | Partial response (PR) [4] | Complete response (CR) [6] | Not Evaluable (NE) [6] | Complete response (CR) [8] | Not Evaluable (NE) [8] | Objective response rate (CR + PR) [8] | Partial response (PR) [8] | Complete response (CR) [10] | Complete response (CR) [12] | Objective response rate (CR + PR) [12] | Partial response (PR) [12] | Complete response (CR) [14] | Objective response rate (CR + PR) [14] | Partial response (PR) [14] | Complete response (CR) [16] | Not Evaluable (NE) [16] | Complete response (CR) [18]
(55.6%): Progressive Disease (PD) [5] | Progressive Disease (PD) [15]
